Results as given in patent US9469616B2, “Cyclic compounds and methods of making and using the same” (Cellceutix Corporation, priority 2011, dated 2016).
Converted amounts (≈) assume the structure as drawn. “And” between values parts separate entries of the source, which are not always exact repeats. Equal entries are not always repeated.

Columns and labels:
[1] = system: E. coli (25922); assay: MIC assay (Table 1); type: cell-based; details: Escherichia coli, isolate 25922
[2] = system: S. aureus (27660); assay: MIC assay (Table 1); type: cell-based; details: Staphylococcus aureus, isolate 27660
[3] = system: P. aeruginosa (10145); assay: MIC assay (Table 1); type: cell-based; details: Pseudomonas aeruginosa, isolate 10145
[4] = system: Escherichia coli; assay: Antimicrobial activity (MIC) of aryl compounds (Table 2); type: cell-based
From the text: (§1) A new series of aryl compounds was designed to evaluate the effect of charge and aromatic group hydrophobicity on the biological activity while still maintaining an amphiphilic topology. Four and six cationic charges were investigated, and three different central rings were used to tune the overall hydrophobicity: benzene, naphthalene, and phenylbenzene. The hydrophobicities of the aryl compounds were quantified using reversed-phase HPLC retention times (Rt). The antimicrobial activities (expressed as minimum inhibitory concentration (MIC)) of these compounds were tested against four pathogens, including both Gram-negative and Gram-positive bacteria, and their hemolysis (evaluated in terms of HC50, the lowest concentration that causes 50% hemolysis of red blood cells (RBCs)) was tested against human RBCs.

[5] = system: Staphylococcus aureus; assay: as above; type: cell-based
From the text: as §1

[6] = system: human RBCs; type: cell-based; details: 1 h, pH 7.4
From the text: as §1
Cytotoxicity of the compounds is also evaluated in a hemolysis assay using human erythrocytes. Pooled whole human blood is centrifuged to separate the red blood cells (RBC). The isolated RBCs are rinsed and diluted in Tris-buffered saline (TBS buffer, pH 7.4) to obtain a 0.22% RBC stock suspension. 5 μL of a Compound stock solution is added to 45 μL of RBC suspension and incubated with shaking for 1 hour at 37° C. At the conclusion of the incubation time, samples are centrifuged and 30 μL of the supernatant is added to 100 μL of water. OD414 measurements are read for hemoglobin concentration. The bee venom peptide melittin is used as a positive control. EC50 values are determined as described above.
Cytotoxicity is also evaluated in a hemolysis assay using isolated human erythrocytes. Pooled whole human blood is centrifuged to separate the red blood cells (RBC). The isolated RBCs are rinsed and diluted in Tris-buffered saline (TBS buffer, pH 7.4) to obtain a 0.22% RBC stock suspension. […] OD405 measurements are read for hemoglobin concentration. […] EC50 values are determined using a four parameter logistic equation: Y=Bottom+(Top−Bottom)/(1+10^((Log EC50−X)*HillSlope)).

[7] = system: NIH/3T3 cells; assay: Cytotoxicity colorimetric assay; type: cell-based; details: Mus musculus, NIH3T3, 1 h, one hour incubation in serum-free media
Description: Cytotoxicity of the compounds are evaluated in a colorimetric assay using a transformed human liver cell line (HepG2, HB-8065) and an embryonic mouse cell line (NIH/3T3 cells, CRL-1658). This assay measures the bioreduction of a novel tetrazolium compound to a soluble formazan product by viable cells. HepG2 cells are seeded in 96 well plates at 2×10^4 cells/well in MEM medium with 10% fetal bovine serum (FBS) 24 hours prior to use. NIH/3T3 cells are seeded in 96 well plates at 2×10^4 cells/well in DMEM medium with 10% bovine calf serum (BCS) 24 hours prior to use. Cell monolayers are rinsed in serum-free media and incubated for one hour with a Compound in serum-free media. After incubation, the media is replaced with serum supplemented media and live cells are measured using the Cell Titer 96 Aqueous […] Assay kit (Promega, Madison, Wis.). EC50 values are determined using a four parameter logistic equation: Y=Bottom+(Top−Bottom)/(1+10^((Log EC50−X)*HillSlope)). […] Data is expressed as EC50 in μg/ml. Cytotoxicity is evaluated in a colorimetric assay using a transformed human liver cell line (HepG2, HB-8065) and an embryonic mouse cell line (NIH/3T3 cells, CRL-1658). This assay measures the bioreduction of a novel tetrazolium compound to a soluble formazan product by viable cells. HepG2 cells are seeded in 96 well plates at 3×10^4 cells/well in MEM medium with 10% fetal bovine serum (FBS) 24 hours prior to use. NIH/3T3 cells are seeded in 96 well plates at 2×10^4 cells/well in DMEM medium with 10% bovine calf serum (BCS) 24 hours prior to use. Cell monolayers are rinsed in serum-free media and incubated for one hour with test agent in serum-free media. After incubation, the media is replaced with serum supplemented media and live cells are measured using the Cell Titer 96 Aqueous […] Assay kit (Promega, Madison, Wis.). EC50 values are determined using a four parameter logistic equation: Y=Bottom+(Top−Bottom)/(1+10^((Log EC50−X)*HillSlope)).

[8] = system: RAW 264.7 cells; assay: Cytokine production in RAW 264.7 cells (ELISA); type: cell-based, murine
[9] = system: primary murine bone marrow-derived macrophages (BMDMs); assay: Cytokine and chemokine production in BMDM cells; type: cell-based, mouse
From the text: The specific self-agonistic effect of Compound 116 along with its elevated agonistic effect with LPS stimulation in RAW 264.7 cells prompted evaluation of Compound 116 activity in primary murine bone marrow-derived macrophages (BMDMs). […] This observation is very similar to the immunomodulatory effect of Compound 116 in RAW 264.7 cells.
It was previously reported that the protective activity of a synthetic cationic peptide against bacterial infection was associated with the induction of chemokines such as CXCL1 from macrophages and/or monocytes. Thus, the ability of this nontoxic, nonpeptidic, antimicrobial compound to modulate both cytokine and chemokine production is encouraging for the design of synthetic molecules with multiple biological functions.

SMILES: NCCCOc1cc(-c2ccc3ccc(-c4cc(OCCCN)c(OCCCN)c(OCCCN)c4)cc3c2)cc(OCCCN)c1OCCCN [Compound 116]
- MIC50 [1]: 3.13 µg/mL (≈ 4.35 µM)
- MIC50 [2]: 3.13 µg/mL (≈ 4.35 µM)
- MIC50 [3]: 25 µg/mL (≈ 34.8 µM)
- MIC ([4]; Escherichia coli, Table 2): 3.13 µg/mL (≈ 4.35 µM)
- Selectivity (HC50/MIC) E. coli ([4]; HC50/MIC): 200 and 209.6
- MIC E. coli ([4]; Table 2): ≈ 3 μg/ml
- Selectivity (HC50/MIC) S. aureus ([5]; HC50/MIC): 200 and 209.6
- selectivity, times higher than the selectivity of MSI-78 ([5]; S. aureus and E. coli, relative to MSI-78): ~20 times
- MIC ([5]; Staphylococcus aureus, Table 2, read-out: MIC S. aureus): 3.13 µg/mL (≈ 4.35 µM)
- MIC S. aureus ([5]; Table 2): ≈ 3 μg/ml
- HC50 [6]: 656 µg/mL
- EC50 [7]: 165 µg/mL (≈ 230 µM)
- LPS-induced TNF production ([8]; 5.0 μg/mL preincubation 1 hour, LPS 100 ng/mL 18 hours, FIG. 1B): increased
- LPS-induced IL-6 production ([8]; 5.0 μg/mL preincubation 1 hour, LPS 100 ng/mL 18 hours, FIG. 1C): increased
- LPS-induced IL-10 production ([8]; 5.0 μg/mL preincubation 1 hour, LPS 100 ng/mL 18 hours, FIG. 1D): inhibited the production of the anti-inflammatory cytokine IL 10 to background levels
- TNF production ([8]; 5.0 μg/mL, without LPS, FIG. 1A): induced TNF production
- LPS-induced TNF production with externally added rIL-10 ([8]; preincubated with mouse rIL-10 50 ng/mL, 5.0 μg/mL compound, LPS 100 ng/mL, FIG. 2): abrogation of Compound 116's capacity to enhance TNF production
- TNF level with externally added rIL-10 ([8]; preincubated with mouse rIL-10 50 ng/mL, 5.0 μg/mL compound, without LPS, FIG. 2): only a slight decrease in the overall TNF level
- LPS-induced TNF production ([9]; 5.0 μg/mL preincubation 1 hour, LPS 100 ng/mL 15 hours, FIG. 3A): significantly increased
- LPS-induced IL-10 production ([9]; 5.0 μg/mL preincubation 1 hour, LPS 100 ng/mL 15 hours, FIG. 3B): inhibited
- TNF production ([9]; 5.0 μg/mL, in the absence of LPS, FIG. 3A): 30 pg/mL
- murine KC (chemokine CXCL1) levels ([9]; 5.0 μg/mL, relative to the DMSO control, FIG. 3C): significantly higher levels
